Measurements taken from the supplement of paper PMC10307832.

Assays:
Experiment in all cases: relative viability (nuclei count vs DMSO), 5 days (fraction); higher = more cells survive
[1] = compound: CC(C)C[C@H](NC(=O)[C@H](CCc1ccccc1)NC(=O)CN1CCOCC1)C(=O)N[C@@H](Cc1ccccc1)C(=O)N[C@@H](CC(C)C)C(=O)[C@@]1(C)CO1 [Carfilzomib] + CC(=O)Nc1cccc(-n2c(=O)n(C3CC3)c(=O)c3c(Nc4ccc(I)cc4F)n(C)c(=O)c(C)c32)c1 [Trametinib] (partner 0.02 µM)
How it was run: (§1)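 Lung cancer cell lines in 1536-well plates got either a single drug or a fixed anchor-drug dose together with five library-drug doses (not always all listed) in √10 steps, by pin tool, on the day after seeding. Nuclei were counted after 5 days, and relative viability is the treated-to-vehicle ratio of nuclei counts. Values are medians of duplicate plates.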

[2] = compound: C[C@@H](Oc1cc(-c2cnn(C3CCNCC3)c2)cnc1N)c1c(Cl)ccc(F)c1Cl [Crizotinib] + COc1cccc2cc(-c3nc([C@H]4CC[C@H](C(=O)O)CC4)n4ncnc(N)c34)[nH]c12 [OSI-027] (partner 0.5 µM)
How it was run: as §1

[3] = compound: O=C(c1cc(Cc2n[nH]c(=O)c3ccccc23)ccc1F)N1CCN(C(=O)C2CC2)CC1 [Olaparib] + NC(=O)Nc1cc(-c2cccc(F)c2)sc1C(=O)N[C@H]1CCCNC1 [AZD7762] (partner 0.2 µM)
How it was run: as §1

[4] = compound: C[C@@H](Oc1cc(-c2cnn(C3CCNCC3)c2)cnc1N)c1c(Cl)ccc(F)c1Cl [Crizotinib] + CS(=O)(=O)N1CCN(Cc2cc3nc(-c4cccc5[nH]ncc45)nc(N4CCOCC4)c3s2)CC1 [Pictilisib] (partner 1 µM)
How it was run: as §1

Cell Line | relative viability ([1]; first compound 0.001 µM) | relative viability ([1]; first compound 0.003162 µM) | relative viability ([1]; first compound 0.01 µM) | relative viability ([1]; first compound 0.03162 µM) | relative viability ([1]; first compound 0.1 µM) | relative viability ([2]; first compound 0.01 µM) | relative viability ([2]; first compound 0.03162 µM) | relative viability ([2]; first compound 0.1 µM) | relative viability ([2]; first compound 0.3162 µM) | relative viability ([2]; first compound 1 µM) | relative viability ([3]; first compound 0.08 µM) | relative viability ([3]; first compound 0.253 µM) | relative viability ([3]; first compound 2.53 µM) | relative viability ([3]; first compound 8 µM) | relative viability ([4]; first compound 0.01 µM) | relative viability ([4]; first compound 0.03162 µM) | relative viability ([4]; first compound 0.1 µM) | relative viability ([4]; first compound 0.3162 µM) | relative viability ([4]; first compound 1 µM)
LCLC-103H | 0.688 | 0.643 | 0.72 | 0.642 | 0.557 | 0.483 | 0.485 | 0.361 | 0.495 | 0.428 | 0.916 | 0.773 | 0.727 | 0.56 | 0.547 | 0.65 | 0.669 | 0.583 | 0.576
LK-2 | 0.713 | 0.973 | 0.747 | 0.172 | 0.2 | 0.196 | 0.186 | 0.166 | 0.189 | 0.183 | 0.351 | 0.394 | 0.348 | 0.471 | 0.51 | 0.59 | 0.492 | 0.645 | 0.568
LOU-NH91 | 0.831 | 0.81 | 0.818 | 0.389 | 0.33 | 0.713 | 0.724 | 0.798 | 0.712 | 0.706 | 0.838 | 0.739 | 0.789 | 0.761 | 0.45 | 0.531 | 0.618 | 0.515 | 0.484
LU99A | 0.525 | 0.588 | 0.541 | 0.417 | 0.284 | 0.304 | 0.319 | 0.294 | 0.259 | 0.275 | 0.337 | 0.213 | 0.204 | 0.125 | 0.261 | 0.327 | 0.348 | 0.336 | 0.365
LXF-289 | 0.705 | 0.742 | 0.679 | 0.163 | 0.107 | 0.769 | 0.809 | 0.758 | 0.489 | 0.877 | 1.27 | 1.02 | 1.28 | 1.17 | 0.757 | 0.803 | 0.726 | 0.757 | 0.782
NCI-H23 | 0.39 | 0.328 | 0.428 | 0.238 | 0.0981 | 0.631 | 0.58 | 0.66 |  | 0.541 | 0.3 | 0.269 | 0.269 | 0.147 | 0.441 | 0.539 | 0.505 |  | 0.541
NCI-H322M | 0.505 | 0.49 | 0.487 | 0.507 | 0.364 | 0.519 | 0.521 | 0.478 | 0.535 | 0.502 | 0.724 | 0.608 | 0.521 | 0.496 | 0.432 | 0.522 | 0.493 | 0.585 | 0.52
NCI-H358 | 0.139 | 0.136 | 0.141 | 0.0944 | 0.0819 | 0.628 | 0.897 | 0.673 | 0.664 | 0.772 | 0.574 | 0.522 | 0.495 | 0.382 | 0.338 | 0.354 | 0.35 | 0.27 | 0.325
NCI-H441 | 0.554 | 0.445 | 0.236 | 0.103 | 0.115 | 0.569 | 0.553 | 0.601 |  | 0.603 | 1.16 | 1.03 | 1 | 0.446 | 0.436 | 0.395 | 0.432 | 0.34 | 0.443
NCI-H460 | 0.116 | 0.143 | 0.181 | 0.13 | 0.0157 | 0.536 | 0.931 | 0.479 | 0.6 | 0.708 | 0.595 | 0.513 | 0.357 | 0.126 | 0.4 | 0.349 | 0.302 | 0.309 | 0.314
NCI-H596 | 0.785 | 0.804 | 0.952 | 0.69 | 0.205 | 0.715 | 0.857 | 0.693 | 0.564 | 0.67 | 1.19 | 0.981 | 1.04 | 0.703 | 0.348 | 0.378 | 0.354 | 0.414 | 0.367
NCI-H647 | 0.415 | 0.529 | 0.538 | 0.0767 | 0.0407 | 0.736 | 0.516 | 0.641 | 0.531 | 0.663 | 0.508 | 0.379 | 0.343 | 0.156 | 0.432 | 0.393 | 0.459 |  | 0.269
NCI-H650 | 0.899 | 1.1 | 1.08 | 0.798 | 0.169 | 0.587 | 0.508 | 0.544 | 0.423 | 0.59 | 1.05 | 0.956 | 0.826 | 0.927 | 0.883 | 0.893 | 0.865 | 0.799 | 0.783
NCI-H727 | 0.428 | 0.376 | 0.46 | 0.41 | 0.312 |  | 0.561 | 0.774 |  | 0.551 | 0.509 | 0.706 | 0.626 | 0.676 | 0.368 | 0.389 | 0.561 | 0.285 | 0.29
NCI-H838 | 0.517 | 0.575 | 0.614 | 0.215 | 0.0888 | 0.348 | 0.369 | 0.409 | 0.393 | 0.392 | 1.09 | 0.949 | 0.912 | 0.801 | 0.396 | 0.5 | 0.483 | 0.426 | 0.496
NCI-H1355 | 0.42 | 0.469 | 0.422 | 0.44 | 0.139 | 0.358 | 0.44 | 0.394 | 0.369 | 0.361 | 0.74 | 0.749 | 0.714 | 0.696 | 0.45 | 0.52 | 0.413 | 0.297 | 0.434
NCI-H1395 |  | 0.997 | 1.11 | 0.566 | 0.344 | 0.601 | 0.631 | 0.623 | 0.496 | 0.563 | 0.429 | 0.334 | 0.384 | 0.359 | 0.621 | 0.557 | 0.73 | 0.906 | 0.542
